Consider four compounds from US4058624A, “Broad spectrum antibacterial compositions containing tris (hydroxymethyl)-aminomethane and diphenyl and loweralkyl substituted diphenyl polyamines” (Merck & Co., Inc., priority 1976, dated 1977).

A short description of the series: Acute toxicity, oral LD50 mice (Table I). The note with it: mouse, in vivo. An excerpt: The low toxicity of these compounds makes them especially attractive for use where contact with skin surfaces or possible ingestion renders the use of irritating or toxic materials inadvisable.
`CC(C)(C)c1ccc(CCCC(CCCc2ccc(C(C)(C)C)cc2)NCCCNCCCNCCCN)cc1.Cl.Cl.Cl.Cl` [1-[1,7-bis-(4-t-butylphenyl)-4-heptyl]-1,5,9,13-tetrazatridecane tetrahydrochloride] returned a median lethal dose (LD50) of 1550 mg/kg.
Consider `Cc1ccc(C(C)(C)C)cc1CCCC(CCCc1cc(C(C)(C)C)ccc1C)NCCCNCCCN.Cl.Cl.Cl` [1-[1,7-di-(2-methyl-5-t-butylphenyl)-4-heptyl]-1,5,9-triazanonane trihydrochloride], for which the LD50 was determined as 1650 mg/kg.
Consider `Cc1cc(C)c(CCC(CCc2c(C)cc(C)cc2C)NCCCNCCCN)c(C)c1.Cl.Cl.Cl` [1-[1,5-di-(2,4,6-trimethylphenyl)-3-pentyl]-1,5,9-triazanonane trihydrochloride], for which the median lethal dose (LD50) stood at 1150 mg/kg.
In turn, `Cc1ccc(C(C)(C)C)cc1CCCC(CCCc1cc(C(C)(C)C)ccc1C)NCCNCCNCCN.Cl.Cl.Cl.Cl` [1-[1,7-di-(2-methyl-5-t-butylphenyl)-4-heptyl]-1,4,7,10-tetrazadecane tetrahydrochloride] yielded an LD50 of 2070 mg/kg.
